Test system: 996289-038-R-J1-PDC complex spheroid viability
Assay: Anticancer human tumor 996289-038-R-J1-PDC patient-derived colon adenocarcinoma cell line growth inhibition [CLK]
Conditions: for IC50: curve of first compound; for viability, T/C: stronger effect = lower value
From the text: A high-throughput screen of multi-cell type tumor spheroids was designed to identify active combinations of […] and targeted small molecules. Complex spheroids include a stromal component modeled by human endothelial cells (HUVEC) and fibroblasts modeled by human mesenchymal stem cells (MSCs). The concentration ranges selected for each drug and investigational agent were based upon clinically achievable concentrations if the clinical Cmax of the agent was known.
Compounds. The drugs and investigational agents: cirtuvivint (SM08502; NSC835563), CC-671 (NSC850746), vemurafenib (NSC761431), tapotoclax (NSC804041), sotorasib (NSC818433), adagrasib (NSC831453), MRTX-1133 (NSC836407), BAY2416964 (NSC825713), copanlisib (NSC816437), inavolisib (NSC800729), abemaciclib (NSC768073), osimertinib (NSC779217), entinostat (NSC756642), eltanexor (KPT-8602, NSC794443), venetoclax (NSC766270), ceralasertib (NSC777638), bortezomib (NSC756655), olaparib (NSC753686), talazoparib (NSC767125), alisertib (NSC759677), peposertib (NSC802822), gemcitabine (NSC613327), 5-fluorouracil (NSC19893), SN-38 (NSC673596), oxaliplatin (NSC266046), paclitaxel (NSC125973), and doxorubicin (NSC123127), were obtained from the National Cancer Institute (NCI) Developmental Therapeutics Program Chemical Repository. The FDA-approved anticancer drug set is available from the Developmental Therapeutics Program at https://dtp.cancer.gov/organization/dscb/obtaining/available plates.htm. […] The stock solutions were prepared in dimethyl sulfoxide (DMSO, Sigma-Aldrich, St. Louis, MO, cat. D2650), except for the platinum complexes which were prepared in saline (Quality Biological, Gaithersburg, MD, cat. 114-055-101), at 800-fold the tested concentration and stored at -70 degrees C prior to their use. All drugs and investigational agents were tested over a range starting from a high concentration at or near the clinical Cmax and decreasing in half-log increments. If the clinical Cmax for an agent had not been determined, the highest concentration tested was 10 microM.
Cell Culture. All cells were maintained in an incubator at 37 degrees C and 5% CO2 with 95% humidity. The PDC lines were cultured according to standard operating procedures established by the NCI PDMR. Briefly, all PDCs were thawed and cultured in Matrigel-coated flasks prepared with a working solution of 1X Ham's F-12 nutrient mix, without supplementation (Invitrogen, Waltham, MA, cat. 11765054), 100 U/mL penicillin-streptomycin (Invitrogen, cat. 15140122), and 2.5% Matrigel (Corning Inc., Corning, NY, cat. 354248) for the first three passages. The 947758-054-R-J2-PDC line was cultured in 6B/Colon 1A media, which includes advanced DMEM/F-12 (Thermo Fisher Scientific, cat. 12634028), 10 mM HEPES (Thermo Fisher Scientific, cat. 15630080), 1X GlutaMAX supplement (Thermo Fisher Scientific, cat. 35050061), 0.1 mg/mL primocin (InvivoGen, cat. ant-pm-2), 10% defined fetal bovine serum, heat inactivated (HyClone Laboratories Inc., cat. SH30070.03HI), 1.25 mM N-Acetyl-L-cysteine (Sigma-Aldrich, cat. A9165), 10 mM nicotinamide (Sigma-Aldrich, cat. N0636), 1X B-27 supplement (Thermo Fisher Scientific, cat. 17504044), 1X N-2 supplement (Thermo Fisher Scientific, cat. 17502048), and 10 microM Y-27632 dihydrochloride (Tocris Bioscience, cat. 1254). The 876862-298-R-J1-PDC was cultured in 6E media, which includes all 6B/Colon 1A media components plus 50% L-WRN conditioned media (ATCC, cat. CRL-3276), 50 ng/mL recombinant human EGF recombinant protein (hEGF; Thermo Fisher Scientific, cat. PHG0311), 10 ng/mL recombinant human fibroblast growth factor 10 (hGFG-10; PeproTech, cat. 100-26), 1 ng/mL recombinant human fibroblast growth factor 2 (hFGF-2; PeproTech, cat. 100-18B), and 1 µM prostaglandin E2 (PGE2; Tocris, cat. 2296). The 227483-062-R1-J1-PDC line was cultured in Panc media, containing all 6E components except hFGF-2, with the addition of 500 nM SB-431542 (Selleckchem, cat. S1067) and 10 nM gastrin (Tocris, cat. 3006). […]
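Note: spheroids exposed to the agents for 7 days before readout.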

C#Cc1c(F)ccc2cc(O)cc(-c3ncc4c(N5CC6CCC(C5)N6)nc(OCC56CCCN5CC(F)C6)nc4c3F)c12 (configuration not stated) + CN1CCN(c2cc(C(=O)Nc3cc4cc(-c5cnn(C)c5)ccc4cn3)ccn2)CC1
IC50 (second compound 0.0316 µM): 965 nM | IC50 (second compound 0.1 µM): 589 nM | IC50 (second compound 0.316 µM): 92.3 nM | IC50 (second compound 1 µM): < 31.6 nM | IC50 (second compound 3.16 µM): < 31.6 nM | IC50 (second compound 10 µM): < 31.6 nM | viability, T/C (second compound 0.0316 µM, first compound 0.0316 µM): 102% | viability, T/C (second compound 0.0316 µM, first compound 0.1 µM): 92.2% | viability, T/C (second compound 0.0316 µM, first compound 0.316 µM): 64.3% | viability, T/C (second compound 0.0316 µM, first compound 1 µM): 52.9% | viability, T/C (second compound 0.0316 µM, first compound 3.16 µM): 34.8% | viability, T/C (second compound 0.0316 µM, first compound 10 µM): 28.4% | viability, T/C (second compound 0.1 µM, first compound 0.0316 µM): 85.5% | viability, T/C (second compound 0.1 µM, first compound 0.1 µM): 71.2% | viability, T/C (second compound 0.1 µM, first compound 0.316 µM): 58.1% | viability, T/C (second compound 0.1 µM, first compound 1 µM): 45% | viability, T/C (second compound 0.1 µM, first compound 3.16 µM): 28.6% | viability, T/C (second compound 0.1 µM, first compound 10 µM): 22.2% | viability, T/C (second compound 0.316 µM, first compound 0.0316 µM): 58.7% | viability, T/C (second compound 0.316 µM, first compound 0.1 µM): 50.2% | viability, T/C (second compound 0.316 µM, first compound 0.316 µM): 35.9% | viability, T/C (second compound 0.316 µM, first compound 1 µM): 26.7% | viability, T/C (second compound 0.316 µM, first compound 3.16 µM): 20.7% | viability, T/C (second compound 0.316 µM, first compound 10 µM): 16.6% | viability, T/C (second compound 1 µM, first compound 0.0316 µM): 4.83% | viability, T/C (second compound 1 µM, first compound 0.1 µM): 4.1% | viability, T/C (second compound 1 µM, first compound 0.316 µM): 3.5% | viability, T/C (second compound 1 µM, first compound 1 µM): 2.81% | viability, T/C (second compound 1 µM, first compound 3.16 µM): 2.14% | viability, T/C (second compound 1 µM, first compound 10 µM): 2.96% | viability, T/C (second compound 3.16 µM, first compound 0.0316 µM): 1.47% | viability, T/C (second compound 3.16 µM, first compound 0.1 µM): 1.31% | viability, T/C (second compound 3.16 µM, first compound 0.316 µM): 1.59% | viability, T/C (second compound 3.16 µM, first compound 1 µM): 0.95% | viability, T/C (second compound 3.16 µM, first compound 3.16 µM): 0.67% | viability, T/C (second compound 3.16 µM, first compound 10 µM): 0.45% | viability, T/C (second compound 10 µM, first compound 0.0316 µM): 0.72% | viability, T/C (second compound 10 µM, first compound 0.1 µM): 0.61% | viability, T/C (second compound 10 µM, first compound 0.316 µM): 1.23% | viability, T/C (second compound 10 µM, first compound 1 µM): 0.99% | viability, T/C (second compound 10 µM, first compound 3.16 µM): 0.36% | viability, T/C (second compound 10 µM, first compound 10 µM): 0.65%
